{"source": "patent US8563018B2", "about": "“Foamable pesticide compositions” (priority 2009, dated 2013)", "origin": "cited, not measured here", "key": {"[1]": {"system": "termites", "conditions": "in vivo"}, "[2]": {"system": "ants", "conditions": "in vivo"}}, "data": [{"smiles": "N#Cc1nn(-c2c(Cl)cc(C(F)(F)F)cc2Cl)c(N)c1[S+]([O-])C(F)(F)F", "note": "(racemic) [Fipronil, (±)-5-amino-1-(2,6-dichloro-α,α,α-trifluoro-p-tolyl)-4-trifluoromethylsulfinylpyrazole-3-carbonitrile]", "values": [{"measurement": "dose toxic to termites", "setting": "[1]", "result": 2, "unit": "nanograms per termite"}, {"measurement": "dose toxic to ants", "setting": "[2]", "result": "about 1 nanogram per ant"}]}]}
